Measurements from patent US20200281873A1, “Adamantane or Bicyclic Monoterpenoid Derivatives for Use in the Treatment of Leishmaniasis” (Commissariat a l'Energie Atomique et aux Energies …, priority 2017, published 2020).

Assays:
[1] = Incubation of VP343 with mouse hepatic microsomes (LC-MS); type: in vitro ADME; conditions: t = 45 min
Description: (§1) The metabolites' identification of VP343 was performed after incubation of the compound with hepatic microsomal preparations from mouse, dog and human origin. The assay was performed by mixing VP343 at 5; 4; 2 or 1 μM with CD1 mouse hepatic microsomes (reference MIC255030 Biopredic) at 0.5 mg/mL of protein, or Beagle dog hepatic microsomes (reference MIC257013 Biopredic) at 1 mg/mL of protein, or human hepatic microsomes (reference MIC159882 Biopredic) at 1 mg/mL of protein, together with 1 mM NADPH (reference N1630 Sigma Aldrich), a phase I reaction's cofactor, in a 0.1 M phosphate buffer pH 7.4. Samples were then incubated in a Thermomixer® (Eppendorf) at 37° C. and 300 rotations per minute. After 45 minutes of incubation, the reaction was stopped with acetonitrile (0.5 volume of the experimental incubation volume). The samples' supernatants were then separated from the microsomes by centrifugation at 20,000 g during 10 minutes (Sorvall ST 16, Thermo Fisher Scientific) before analysis by liquid chromatography coupled to mass spectrometry (LC-MS).
(§2) The analysis was performed in two steps: first, on a positive electrospray ionisation source using a Waters Acquity I class UPLC (Ultra Performance Liquid Chromatography) system coupled to a Waters triple quadrupole mass spectrometer (Xevo TQMS) and then on an orbitrap source using a Thermo Fisher UHPLC (Ultra High Performance Liquid Chromatography) system (Ultimate 3000) coupled to a Thermo Fisher orbitrap mass spectrometer (Q Exactive) to confirm the structures of the identified metabolites. VP343 and his metabolites were separated by the UPLC system with a six minutes gradient of acetonitrile containing 0.1% of formic acid in a BEH C18 column (1.7 μm, 2.1×50 mm, Waters) with a mobile phase flow rate of 0.6 mL/min.
(§3) The metabolization of VP343 was studied by incubating the compound with mouse, dog, and human hepatic microsomes. The concentration of VP343 in the microsomal preparations was measured at t=0 and at t=45 min by liquid chromatography-tandem mass spectrometry (LC-MS). […]

[2] = In vivo toxicity evaluation by oral route in mice (serum biochemical parameters); design: species or system Balb/C female mice
Description: Biochemical parameters relative to VP343 and VP370 toxicity in Balb/C female mice (18-20 g) after a single treatment by oral route at 100 mg/kg under a 0.1 mL volume (=5 mL/kg). Serum were collected one week after the treatment. Excipient: Methylcellulose 1%+Tween 0.1%.
Dosages were performed with a Cobas 800 (Roche/Hitachi) apparatus.

[3] = VP343 metabolites' identification by LC-MS in hepatic microsome supernatants; type: in vitro ADME; conditions: supernatants of mouse, dog and human hepatic microsomes incubated with VP343 for 45 min
Description: as §1, with “The samples' supernatants were then separated from the microsomes by centrifugation at 20,000 g during 10 minutes (Sorvall ST 16, Thermo Fisher Scientific) before analysis by liquid chromatography coupled to mass spectrometry (LC-MS).” left out
In each analytical system, the identification was performed in two steps. […] This means that, in a define range mass (m/z 250 to 450), each ion present in the sample should be detected. […] By adding collision energy, the products ions of the targeted metabolites were monitored to validate the supposed metabolite's structure obtained after injecting the sample in full scan mode.
To further investigate the number and nature of the metabolites, supernatants from mouse, dog and human hepatic microsomes incubated with VP343 for 45 min were analyzed by LC-MS (cf. protocol).

[4] = Incubation of VP343 with dog hepatic microsomes (LC-MS); type: in vitro ADME; conditions: for VP343 residual concentration: t = 45 min
Description: as §1, §2
The metabolization of VP343 was studied by incubating the compound with mouse, dog, and human hepatic microsomes. The concentration of VP343 in the microsomal preparations was measured at t=0 and at t=45 min by liquid chromatography-tandem mass spectrometry (LC-MS). About 5% to 50% of VP343 remained after 45 min of incubation with mouse microsomes according to experiments (Table VI and FIG. 3, respectively). About 5% of VP343 remained with dog microsomes. About 40 to 55% remained with human microsomes.

[5] = test system: Leishmania infantum axenic amastigotes; assay: Evaluation on Leishmania donovani infantum axenic amastigotes (SYBR Green I); type: cell-based; conditions: Leishmania infantum; Table II; 3 different experiments, SYBR Green I method; read-out: IC50 axenic
Description: Protocol for Evaluation on Leishmania donovani infantum Axenic Amastigotes
Amastigote forms of the parasite were suspended to yield 10^7 parasitic cells mL^−1. The maximum final compound concentration used was 100 μM. Triplicates were used for each concentration. Cultures were incubated at 37° C. for 72 h in the dark and under a 5% CO2 atmosphere, then the viability of the amastigotes was assessed using the SYBR® Green I (Invitrogen, France) incorporation method. Parasite growth was determined by using SYBR® Green I, a dye with marked fluorescence enhancement upon contact with parasite DNA. Parasites were lysed and quantified by Direct PCR-Cell Genotyping without DNA isolation protocol (Euromedex, France). 10 μL of lysed parasite solution from each well was added to 40 μL of PCR-Cell reagent containing the SYBR® green I in a qPCR plate of 96 wells, and the contents were mixed. Fluorescence was measured with Mastercycler® ep realplex (Eppendorf, France). Measured fluorescence was compared to that from the range obtained with different parasite densities. The antileishmanial activity was expressed as IC50 in μM (concentration of drug inhibiting 50% of the parasite growth, comparatively to the controls treated with the excipient only).

[6] = Incubation of VP343 with human hepatic microsomes (LC-MS); type: in vitro ADME; conditions: t = 45 min
Description: as §1, §2, §3

[7] = single oral treatment 100 mg/kg, serum one week after treatment

## COc1ccc(Br)cc1CN(C)C12CC3CC(CC(C3)C1)C2 [VP343]
[1]; initial concentration 1 μM
  VP343 residual concentration: 0.08 µM
[1]; initial concentration 2 μM
  VP343 residual concentration: 0.09 µM
[1]; initial concentration 4 μM
  VP343 residual concentration: 0.25 µM
[2]; [7]
  Serum AST ± SD: 391 ± 72 U/L
  Serum AST ± SD (second AST column): 169 ± 34 U/L
  Serum creatinin: <18 µM
[2]; single treatment by oral route at 100 mg/kg
  Toxicity after single oral treatment (in words): did not show toxicity
[3]
  Number of metabolites detected: 11
[4]; 45 min
  VP343 remaining after incubation: About 5%
[4]; initial concentration 1 μM
  VP343 residual concentration: 0.03 µM
[4]; initial concentration 2 μM
  VP343 residual concentration: 0.09 µM
[4]; initial concentration 4 μM
  VP343 residual concentration: 0.12 µM
[5]
  IC50: 9.29 µM
[6]; initial concentration 1 μM
  VP343 residual concentration: 0.41 µM
[6]; initial concentration 2 μM
  VP343 residual concentration: 1.08 µM
[6]; initial concentration 4 μM
  VP343 residual concentration: 1.62 µM
